Measured values: ChEMBL document CHEMBL1152249, “2,6-Diaryl-4-acylaminopyrimidines as potent and selective adenosine A(2A) antagonists with improved solubility and metabolic stability” (Bioorg Med Chem Lett, 2008)
Active and inactive are the calls of the source. The calls are words filed in the database; no cut-off is given here.

Legend:
Homo sapiens = species on record: Homo sapiens; assay: Selectivity for human adenosine A2A receptor over human adenosine A1 receptor
[1] = Aqueous solubility at pH 8.0 by HPLC; type: physicochemical
Adenosine receptor A2a [2] = target: Adenosine receptor A2a (Homo sapiens, UniProt P29274); assay: Displacement of [3H]ZM-241385 from human adenosine A2A receptor expressed in HEK293 cells; type: cell-based
Adenosine receptor A2a [3] = target: Adenosine receptor A2a (Rattus norvegicus, UniProt P30543); assay: Activity at adenosine A2A receptor in rat PC12 cells assessed as intracellular cAMP accumulation; type: functional, cell-based, PC-12
Cytochrome P450 3A4 = Cytochrome P450 3A4 (Homo sapiens, UniProt P08684); assay: Inhibition of CYP3A4; type: ADME
Rattus norvegicus [4] = assay: Inhibition of haloperidol-induced catalepsy in po dosed rat; type: functional; details: read-out: MED
[5] = Metabolic stability in human liver microsomes assessed as intrinsic clearance; type: ADME, Microsome
Cytochrome P450 2D6 = Cytochrome P450 2D6 (Homo sapiens, UniProt P10635); assay: Inhibition of CYP2D6; type: ADME
Rattus norvegicus [6] = assay: Inhibition of haloperidol-induced catalepsy in rat at 30 mg/kg, po; type: functional, organism-based; parameters: dose 30 mg/kg

Chain of Adenosine receptor A2a (Homo sapiens, UniProt P29274) (P29274 whole entry): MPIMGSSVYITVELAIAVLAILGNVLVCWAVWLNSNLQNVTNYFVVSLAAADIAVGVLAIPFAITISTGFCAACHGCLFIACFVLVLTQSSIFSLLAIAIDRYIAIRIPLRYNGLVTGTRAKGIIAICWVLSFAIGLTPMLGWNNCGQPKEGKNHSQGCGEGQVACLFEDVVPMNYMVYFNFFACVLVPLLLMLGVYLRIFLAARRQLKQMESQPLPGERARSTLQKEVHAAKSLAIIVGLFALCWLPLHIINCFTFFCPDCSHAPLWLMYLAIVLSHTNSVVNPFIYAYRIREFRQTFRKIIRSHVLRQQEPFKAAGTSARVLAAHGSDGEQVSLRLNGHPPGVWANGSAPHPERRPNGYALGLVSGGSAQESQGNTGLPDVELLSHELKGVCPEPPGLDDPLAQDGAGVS
Chain of Adenosine receptor A2a (Rattus norvegicus, UniProt P30543) (P30543 whole entry): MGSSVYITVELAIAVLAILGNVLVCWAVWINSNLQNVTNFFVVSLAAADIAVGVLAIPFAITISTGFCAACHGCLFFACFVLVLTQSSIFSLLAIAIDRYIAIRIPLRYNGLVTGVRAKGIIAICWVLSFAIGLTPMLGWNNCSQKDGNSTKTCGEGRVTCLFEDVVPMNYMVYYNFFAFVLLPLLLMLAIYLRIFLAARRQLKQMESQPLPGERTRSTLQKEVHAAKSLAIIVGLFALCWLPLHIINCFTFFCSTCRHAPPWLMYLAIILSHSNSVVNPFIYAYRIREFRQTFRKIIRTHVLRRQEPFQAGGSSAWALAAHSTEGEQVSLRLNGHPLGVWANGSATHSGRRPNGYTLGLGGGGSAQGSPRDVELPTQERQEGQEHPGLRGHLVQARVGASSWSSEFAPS
Chain of Cytochrome P450 3A4 (P08684 whole entry): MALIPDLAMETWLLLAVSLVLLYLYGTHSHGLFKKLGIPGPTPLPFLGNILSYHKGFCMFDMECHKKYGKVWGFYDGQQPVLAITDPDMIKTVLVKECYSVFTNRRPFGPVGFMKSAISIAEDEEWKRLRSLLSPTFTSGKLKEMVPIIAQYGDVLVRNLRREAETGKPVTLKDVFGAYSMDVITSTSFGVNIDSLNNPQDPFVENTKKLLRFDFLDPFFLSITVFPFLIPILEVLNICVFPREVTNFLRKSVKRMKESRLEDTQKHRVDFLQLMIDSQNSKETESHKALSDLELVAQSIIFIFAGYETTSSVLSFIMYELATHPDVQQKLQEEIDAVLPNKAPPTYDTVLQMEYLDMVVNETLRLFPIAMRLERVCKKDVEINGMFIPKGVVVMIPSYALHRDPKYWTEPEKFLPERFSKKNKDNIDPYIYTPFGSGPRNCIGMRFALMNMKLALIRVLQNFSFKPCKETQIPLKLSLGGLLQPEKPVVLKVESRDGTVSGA
Chain of Cytochrome P450 2D6 (P10635 whole entry): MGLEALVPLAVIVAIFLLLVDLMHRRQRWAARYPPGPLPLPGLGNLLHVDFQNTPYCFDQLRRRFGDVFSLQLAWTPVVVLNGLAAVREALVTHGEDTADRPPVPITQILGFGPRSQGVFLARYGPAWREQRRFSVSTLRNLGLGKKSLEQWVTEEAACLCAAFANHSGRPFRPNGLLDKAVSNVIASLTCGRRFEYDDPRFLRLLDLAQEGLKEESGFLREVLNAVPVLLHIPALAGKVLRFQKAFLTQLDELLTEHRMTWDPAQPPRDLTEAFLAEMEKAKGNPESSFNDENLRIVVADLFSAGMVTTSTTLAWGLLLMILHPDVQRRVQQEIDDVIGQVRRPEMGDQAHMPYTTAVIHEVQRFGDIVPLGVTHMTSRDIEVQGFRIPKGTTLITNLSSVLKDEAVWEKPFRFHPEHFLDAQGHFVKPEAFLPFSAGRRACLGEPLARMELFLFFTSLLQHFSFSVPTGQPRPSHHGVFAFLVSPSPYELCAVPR

Row | Ratio Ki (Homo sapiens) | Ki (Adenosine receptor A2a [2]) | SMILES | also measured
1 | 134 | 5 nM | CC(=O)Nc1cc(-c2cccc(OCCN(C)C)c2)nc(-n2nc(C)cc2C)n1 | solubility [1]: > 4000 µg/mL
2 | 10 | 2 nM | CC(=O)Nc1cc(-c2cccc(C#N)c2)nc(-n2nc(C)cc2C)n1 | –
3 | 72 | 1 nM | COc1cccc(-c2cc(NC(C)=O)nc(-n3nc(C)cc3C)n2)c1 | –
4 | 102 | 73 nM | CC(=O)Nc1cc(-c2cccc(CO[C@H]3CCN(C)C3)c2)nc(-n2nc(C)cc2C)n1 | –
5 | 50 | 2 nM | CC(=O)Nc1cc(-c2cccc(CC#N)c2)nc(-n2nc(C)cc2C)n1 | –
6 | 40 | 2 nM | CC(=O)Nc1cc(-c2cccc(C(F)(F)F)c2)nc(-n2nc(C)cc2C)n1 | –
7 | 99 | 67 nM | CC(=O)Nc1cc(-c2cccc(CO[C@@H]3CCN(C)C3)c2)nc(-n2nc(C)cc2C)n1 | –
8 | 71 | 2 nM | COc1ccccc1-c1cc(NC(C)=O)nc(-n2nc(C)cc2C)n1 | –
9 | 7 | 87 nM | CC(=O)Nc1cc(-c2ccccc2)nc(-n2nc(C)cc2C)n1 | –
10 | 44 | 17 nM | COc1ccc(-c2cc(NC(C)=O)nc(-n3nc(C)cc3C)n2)cc1 | –
11 | 59 | 7 nM | CC(=O)Nc1cc(-c2cccc(C)c2)nc(-n2nc(C)cc2C)n1 | –
12 | 74 | 2 nM | CC(=O)Nc1cc(-c2cccc(O)c2)nc(-n2nc(C)cc2C)n1 | –
13 | 164 | 3 nM | COc1c(F)cccc1-c1cc(NC(C)=O)nc(-n2nc(C)cc2C)n1 | solubility [1]: < 100 µg/mL

More lines, now with the values behind:

Row | SMILES | Ratio Ki (Homo sapiens) | Ki (Adenosine receptor A2a [2]) | also measured
14 | CC(=O)Nc1cc(-c2cccc(OC3CCCN(C)C3)c2)nc(-n2nc(C)cc2C)n1 (centres undefined) | 203 | 1 nM | –
15 | CC(=O)Nc1cc(-c2cccc(O[C@H]3CCN(C)C3)c2)nc(-n2nc(C)cc2C)n1 | 320 | 2 nM | –
16 | CC(=O)Nc1cc(-c2cc(O)cc(F)c2)nc(-n2nc(C)cc2C)n1 | 54 | 2 nM | –
17 | COc1cc(OC)cc(-c2cc(NC(C)=O)nc(-n3nc(C)cc3C)n2)c1 | 111 | 0.2 nM | solubility [1]: < 100 µg/mL; IC50 (Adenosine receptor A2a [3]): 29 nM; Activity (Cytochrome P450 3A4; TDE = time-dependent effect): tde; minimal effective dose (Rattus norvegicus [4]): 1 mg/kg
18 | CCN1CCC(Oc2cccc(-c3cc(NC(C)=O)nc(-n4nc(C)cc4C)n3)c2)C1 (centres undefined) | 168 | 3 nM | –
19 | CC(=O)Nc1cc(-c2cc(C)cc(C)c2)nc(-n2nc(C)cc2C)n1 | 43 | 8 nM | –
20 | CC(=O)Nc1cc(-c2cc(F)cc(O[C@@H]3CCN(C)C3)c2)nc(-n2nc(C)cc2C)n1 | 125 | 2 nM | CLint scaled [5]: 3 mL/min/kg
21 | CC(=O)Nc1cc(-c2cc(C)ccc2C)nc(-n2nc(C)cc2C)n1 | 46 | 19 nM | –
22 | CC(=O)Nc1cc(-c2cccc(OC3CCN(C)CC3)c2)nc(-n2nc(C)cc2C)n1 | 146 | 6 nM | –
23 | CC(=O)Nc1cc(-c2cc(F)cc(F)c2)nc(-n2nc(C)cc2C)n1 | 64 | 4 nM | –
24 | CN1CCN(CC(=O)Nc2cc(-n3cccn3)nc(-c3ccco3)n2)CC1 | – | 3 nM | –
25 | CC(=O)Nc1cc(-c2cc(F)cc(OC3CCN(C)C3)c2)nc(-n2nc(C)cc2C)n1 (centres undefined) | 135 | 1 nM | CLint scaled [5]: 3 mL/min/kg
26 | CC(=O)Nc1cc(-c2cccc(OC3CCN(C)C3)c2)nc(-n2nc(C)cc2C)n1 (centres undefined) | 191 | 2 nM | solubility [1]: > 4000 µg/mL; IC50 (Adenosine receptor A2a [3]): 42 nM; CLint scaled [5]: 54 mL/min/kg
27 | CC(=O)Nc1cc(-c2cccc(O[C@@H]3CCN(C)C3)c2)nc(-n2nc(C)cc2C)n1 | 145 | 4 nM | –
28 | CC(=O)Nc1cc(-c2cccc(OC3CCN(C(C)C)C3)c2)nc(-n2nc(C)cc2C)n1 (centres undefined) | 167 | 3 nM | –
29 | CC(=O)Nc1cc(-c2cc(F)cc(O[C@H]3CCN(C)C3)c2)nc(-n2nc(C)cc2C)n1 | 218 | 1 nM | Activity (Cytochrome P450 2D6): Not Active; solubility [1]: > 4000 µg/mL; Activity (Rattus norvegicus [6]): Active; IC50 (Adenosine receptor A2a [3]): 15 nM; CLint scaled [5]: 3 mL/min/kg; Activity (Cytochrome P450 3A4): Not Active
